Assay [1] has as its target T1, human vasopressin V1a receptor (Homo sapiens, UniProt P37288). Kind of assay: Human vasopressin V1a receptor binding assay. The settings on record: 1321N1 cell membranes, [3H]vasopressin; read-out: Ki (nM) on hV1a cell line. An outline of the steps:
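Radioligand competition on membranes from cells expressing human V1a receptor; incubation 60 minutes at 27° C., non-specific binding with 1.2×10^−6 M unlabeled (Arg^8)-vasopressin, filtration separation. Ki by Cheng-Prusoff using Scatchard-derived KD, from at least two independent experiments.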

Assay [2] deals with T1, human vasopressin V1a receptor. In words: Functional assay on human vasopressin V1a receptor expressing cell line (intracellular Ca2+ fluorescence). Type of assay: cell-based. The settings on record: 1321N1 cells, (Arg8)-vasopressin at EC80; read-out: IC50 (nM) on hV1a cell line.

Counter-ions that a name gives are not always drawn.

T1 sequence (P37288 whole entry): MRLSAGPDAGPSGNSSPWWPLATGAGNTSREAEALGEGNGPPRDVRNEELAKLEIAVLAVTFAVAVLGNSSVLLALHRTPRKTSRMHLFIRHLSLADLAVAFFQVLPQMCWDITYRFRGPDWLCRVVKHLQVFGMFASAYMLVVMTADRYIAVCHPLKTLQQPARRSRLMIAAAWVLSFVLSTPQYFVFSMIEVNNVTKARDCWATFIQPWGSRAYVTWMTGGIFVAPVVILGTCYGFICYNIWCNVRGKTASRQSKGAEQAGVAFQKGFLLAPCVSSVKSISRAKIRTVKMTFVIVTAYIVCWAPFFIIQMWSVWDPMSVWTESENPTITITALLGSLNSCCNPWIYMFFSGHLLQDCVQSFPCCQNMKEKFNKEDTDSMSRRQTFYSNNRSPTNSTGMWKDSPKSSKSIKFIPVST

With `CC(C)N1CC[C@]2(CC[C@H](c3nnc4n3-c3ccc(Cl)cc3CC3(C4)OCCO3)CC2)C1=O` [Example 129, (5s,8s)-8-(8′-chloro-4′H,6′H-spiro[1,3-dioxolane-2,5-[1,2,4]triazolo[4,3-a][1]benzazepin]-1′-yl)-2-(propan-2-yl)-2-azaspiro[4.5]decan-1-one], the Ki in assay [1] stood at 0.5 nM. Moreover, the half-inhibitory concentration (IC50) in assay [2] came out at 20 nM.
On to `Cc1ccc2c(c1)CC(NC(C)C)Cc1nnc([C@H]3CC[C@H](Oc4ccccn4)CC3)n1-2` (stereo partly drawn) [Example 38, 8-methyl-N-(propan-2yl)-1-[trans-4-(pyridin-2-yloxy)cyclohexyl]-5,6-dihydro-4H-[1,2,4]triazolo[4,3-a][1]benzazepine-5-amine], for which the Ki in assay [1] was determined as 2 nM. Also, in assay [2], the half-maximal inhibitory concentration (IC50) turned out to be 30 nM.
As for `O=C(N[C@@H]1Cc2cc(Cl)ccc2-n2c(nnc2[C@H]2CC[C@H](Oc3ccccn3)CC2)C1)C(F)(F)F` [Example 217, N-{(5R)-8-chloro-1-[trans-4-(pyridin-2-yloxy)cyclohexyl]-5,6-dihydro-4H-[1,2,4]triazolo[4,3-a][1]benzazepin-5-yl}-2,2,2-trifluoroacetamide], the inhibitory constant (Ki) in assay [1] was determined as 0.3 nM. For the same molecule, the IC50 in assay [2] was found to be 1.4 nM.
In the case of `COc1ccc2c(c1)CC(NC(C)C)Cc1nnc([C@H]3CC[C@H](Oc4ccccn4)CC3)n1-2` (stereo partly drawn) [Example 32, 8-methoxy-N-(propan-2-yl)-1-[trans-4-(pyridin-2-yloxy)cyclohexyl]-5,6-dihydro-4H-[1,2,4]triazolo[4,3-a][1]benzazepine-5-amine], the inhibition constant (Ki) in assay [1] is 6 nM. Moreover, the IC50 in assay [2] is 85 nM.
Turning to `CN(C)C1Cc2cc(C(F)(F)F)ccc2-n2c(nnc2[C@H]2CC[C@H](Oc3ccccn3)CC2)C1` (stereo partly drawn) [Example 35, N,N-dimethyl-1-[trans-4-(pyridin-2-yloxy)cyclohexyl]-8-(trifluoromethyl)-5,6-dihydro-4H-[1,2,4]triazolo[4,3-a][1]benzazepine-5-amine], in assay [1], the Ki is 9.7 nM. In addition, the half-inhibitory concentration (IC50) in assay [2] was found to be 160 nM.
On to `Clc1ccc2c(c1)C[C@H](N1CCOCC1)Cc1nnc([C@H]3CC[C@H](Oc4ccccn4)CC3)n1-2` [Example 122, (5S)-8-chloro-5-(morpholin-4-yl)-1-[trans-4-(pyridin-2-yloxy)cyclohexyl]-5,6-dihydro-4H-[1,2,4]triazolo[4,3-a][1]benzazepine], for which the Ki in assay [1] is 3 nM. Besides, the 50% inhibitory concentration (IC50) in assay [2] is 14 nM.
For `N#CCC(=O)N[C@@H]1Cc2cc(Cl)ccc2-n2c(nnc2[C@H]2CC[C@H](Oc3ccccn3)CC2)C1` [Example 186, N-(5R)-8-chloro-1-[trans-4-(pyridin-2-yloxy)cyclohexyl]-5,6-dihydro-4H-[1,2,4]triazolo[4,3-a][1]benzazepin-5-yl-2-cyanoacetamide], in assay [1], the Ki is 0.4 nM. Besides, in assay [2], the 50% inhibitory concentration (IC50) came to 1.2 nM.
Turning to `Fc1ccc2c(c1)CC1(Cc3nnc([C@H]4CC[C@H](C(F)(F)F)CC4)n3-2)OCCO1` [Example 149, 8′-fluoro-1′-[trans-4-(trifluoromethyl)cyclohexyl]-4′H,6′H-spiro[1,3-dioxolane-2,5′-[1,2,4]triazolo[4,3-a][1]benzazepine]], the Ki in assay [1] turned out to be 0.8 nM. In assay [2], the half-inhibitory concentration (IC50) is 15 nM.
For `COC1Cc2cc(Cl)ccc2-n2c(nnc2[C@H]2CC[C@@H](N3CCN(C)CC3)CC2)C1` (stereo partly drawn) [Example 183, 8-chloro-5-methoxy-1-[cis-4-(4-methylpiperazin-1-yl)cyclohexyl]-5,6-dihydro-4H-[1,2,4]triazolo[4,3-a][1]benzazepine], the Ki in assay [1] was 102 nM. In assay [2], the IC50 was found to be 2120 nM.
Take `COC1Cc2cc(Cl)ccc2-n2c(nnc2[C@H]2CCN(Cc3cccnc3)C2)C1` (stereo partly drawn) [Example 251, 8-chloro-5-methoxy-1-[(3S)-1-(pyridin-3-ylmethyl)pyrrolidin-3-yl]-5,6-dihydro-4H-[1,2,4]triazolo[4,3-a][1]benzazepine]: the Ki in assay [1] was 18.5 nM. For the same molecule, the concentration for half-maximal inhibition (IC50) in assay [2] came out at 152 nM.
Regarding `COc1ccc2c(c1)CC(N)Cc1nnc([C@H]3CC[C@H](Oc4ccccn4)CC3)n1-2` (stereo partly drawn) [Example 31, 8-methoxy-1-[trans-4-(pyridin-2-yloxy)cyclohexyl]-5,6-dihydro-4H-[1,2,4]triazolo[4,3-a][1]benzazepine-5-amine hydrochloride], the inhibition constant (Ki) in assay [1] was determined as 17 nM. Also, in assay [2], the IC50 came out at 260 nM.
`Clc1ccc2c(c1)CC1(Cc3nnc([C@H]4CCN(Cc5cccnc5)C4)n3-2)OCCO1` [Example 249, 8′-chloro-1-[(3S)-1-(pyridin-3-ylmethyl)pyrrolidin-3-yl]-4′H,6′H-spiro[1,3-dioxolane-2,5′-[1,2,4]triazolo[4,3-a][1]benzazepine]]: the inhibition constant Ki in assay [1] turned out to be 0.8 nM. Besides, in assay [2], the IC50 was determined as 7 nM.
The corresponding values for `CN1C[C@]2(CC[C@H](c3nnc4n3-c3ccc(Cl)cc3CC3(C4)OCCO3)CC2)OC1=O` [Example 73, (cis)-8-(8′-chloro-4′H,6′H-spiro[1,3-dioxolane-2,5′-[1,2,4]triazolo[4,3-a][1]benzazepine]-1′-il)-3-methyl-1-oxa-3-azaspiro[4.5]decan-2-one] are 1.6 nM and 3.3 nM.
Consider `Clc1ccc2c(c1)CC1(Cc3nnc([C@H]4CC[C@H](CN5CCCCC5)CC4)n3-2)OCCO1` [Example 69, 8′-chloro-1′-[trans-4-(piperidin-1-ylmethyl)cyclohexyl]-4′H,6′H-spiro[1,3-dioxolane-2,5′-[1,2,4]triazolo[4,3-a][1]benzazepine]], for which, in assay [1], the Ki came to 10 nM. For the same molecule, the IC50 in assay [2] is 139 nM.
For `COc1ccc(CN(C)[C@H]2CC[C@H](c3nnc4n3-c3ccc(Cl)cc3CC3(C4)OCCO3)CC2)cc1` [Example 230, Trans-4-(8′-chloro-4′H,6′H-spiro[1,3-dioxolane-2,5′-[1,2,4]triazolo[4,3-a][1]benzazepin]-1′-yl)-N-(4-methoxybenzyl)-N-methylcyclohexanamine], the Ki in assay [1] was 0.7 nM. The half-maximal inhibitory concentration (IC50) in assay [2] was 12 nM.
In the same order, the values of `Clc1ccc2c(c1)CC1(Cc3nnc(N4CCC(N5CCCCC5)CC4)n3-2)OCCO1` [Example 94, 1′-(1,4′-bipiperidin-1′-yl)-8′-chloro-4′H,6′H-spiro[1,3-dioxolane-2,5′-[1,2,4]triazolo[4,3-a][1]benzazepine]] are 2 nM and 23 nM.
The corresponding values for `COC1Cc2cc(Cl)ccc2-n2c(nnc2N2CCC3(CC2)OCc2ccccc23)C1` (stereo not shown) [Example 191, 8-chloro-5-methoxy-1-(1′H,3H-spiro[2-benzofuran-1,4′-piperidin]-1′-yl)-5,6-dihydro-4H-[1,2,4]triazolo[4,3-a][1]benzazepine] are 0.3 nM and 2.9 nM.
In the case of `O=C(OC1Cc2cc(Cl)ccc2-n2c(nnc2[C@H]2CC[C@H](Oc3ccccn3)CC2)C1)C1CCC(F)(F)CC1` (stereo partly drawn) [Example 212, 8-chloro-1-[trans-4-(pyridin-2-yloxy)cyclohexyl]-5,6-dihydro-4H-[1,2,4]triazolo[4,3-a][1]benzazepin-5-yl 4,4-difluorocyclohexanecarboxylate], in assay [1], the Ki stood at 2.8 nM. In addition, in assay [2], the IC50 is 34 nM.
Regarding `CC(C)(C)OC(=O)NCCN[C@@H]1Cc2cc(Cl)ccc2-n2c(nnc2[C@H]2CC[C@H](Oc3ccccn3)CC2)C1` [Example 228, Tert-butyl [2-({(5R)-8-chloro-1-[trans-4-(pyridin-2-yloxy)cyclohexyl]-5,6-dihydro-4H-[1,2,4]triazolo[4,3-a][1]benzazepin-5-yl}amino)ethyl]carbamate], the inhibitory constant (Ki) in assay [1] was found to be 0.8 nM. Besides, in assay [2], the IC50 turned out to be 6.1 nM.
For the molecule `COC1Cc2cc(Cl)ccc2-n2c(nnc2[C@H]2CC[C@H](C(=O)N3CCN(C)CC3)CC2)C1` (stereo partly drawn) [Example 166, [Trans-4-(8-chloro-5-methoxy-5,6-dihydro-4H-[1,2,4]triazolo[4,3-a][1]benzazepin-1-yl)cyclohexyl](4-methylpiperazin-1-yl)methanone], in assay [1], the inhibition constant Ki was 6.2 nM. The IC50 in assay [2] was 169 nM.
In the case of `Clc1ccc2c(c1)CC(OCC1CC1)Cc1nnc([C@H]3CC[C@H](Oc4ccccn4)CC3)n1-2` (stereo partly drawn) [Example 59, 5-(Cyclopropylmethoxy)-8-chloro-1-[trans-4-(pyridin-2-yloxy)cyclohexyl]-5,6-dihydro-4H-[1,2,4]triazolo[4,3-a][1]benzazepine], in assay [1], the Ki worked out at 0.8 nM. In addition, the half-inhibitory concentration (IC50) in assay [2] is 2.5 nM.
`CC(C)(C)[Si](C)(C)OC1Cc2cc(Cl)ccc2-n2c(nnc2[C@H]2CC[C@H](Oc3ccccn3)CC2)C1` (stereo partly drawn) [Example 52, 5-{[tert-butyl(dimethyl)silyl]oxy}-8-chloro-1-[trans-4-(pyridin-2-yloxy)cyclohexyl]-5,6-dihydro-4H-[1,2,4]triazolo[4,3-a][1]benzazepine]: the Ki in assay [1] is 11 nM. Also, the IC50 in assay [2] turned out to be 60 nM.
On to `CC(C)(C)OC(=O)NC1Cc2cc(Cl)ccc2-n2c(nnc2N2CCN(c3ncccc3Cl)CC2)C1` (stereo not shown) [Example 139, Tert-butyl {8-chloro-1-[4-(3-chloropyridin-2-yl)piperazin-1-yl]-5,6-dihydro-4H-[1,2,4]triazolo[4,3-a][1]benzazepin-5-yl}carbamate], for which the inhibitory constant (Ki) in assay [1] is 9.3 nM. Moreover, the IC50 in assay [2] is 130 nM.
Take `COC1Cc2cc(Cl)ccc2-n2c(nnc2C2CCN(Cc3ccccn3)C2)C1` (stereo not shown) [Example 185, 8-chloro-5-methoxy-1-[1-(pyridin-2-ylmethyl)pyrrolidin-3-yl]-5,6-dihydro-4H-[1,2,4]triazolo[4,3-a][1]benzazepine]: in assay [1], the inhibitory constant (Ki) stood at 4.1 nM. Besides, the IC50 in assay [2] is 19 nM.
For the molecule `O=C(OC1Cc2cc(Cl)ccc2-n2c(nnc2[C@H]2CC[C@H](Oc3ccccn3)CC2)C1)C1CC(F)(F)C1` (stereo partly drawn) [Example 213, 8-chloro-1-[trans-4-(pyridin-2-yloxy)cyclohexyl]-5,6-dihydro-4H-[1,2,4]triazolo[4,3-a][1]benzazepin-5-yl 3,3-difluorocyclobutanecarboxylate], the Ki in assay [1] came to 0.6 nM. Moreover, in assay [2], the half-inhibitory concentration (IC50) worked out at 5.5 nM.
Take `CO[C@@H]1Cc2cc(Cl)ccc2-n2c(nnc2[C@H]2CC[C@H](C(F)(F)F)CC2)C1` (single isomer, unassigned) [Example 132]: the Ki in assay [1] came out at 0.3 nM. Also, in assay [2], the IC50 came to 2.5 nM.

By Ki is commonly meant the dissociation constant of the complex between target and ligand, obtained from inhibition or displacement. As a reminder, the IC50 is the midpoint of a concentration-inhibition curve.
